Measured values reported in patent US10772893B2, “2-(morpholin-4-yl)-1,7-naphthyridines” (BAYER PHARMA AKTIENGESELLSCHAFT, priority 2014, dated 2020).

What follows are molecules tested on HeLa cells (assay: Proliferation assay, crystal violet staining). Settings: Homo sapiens, 96 h, read-out: Inhibition of HeLa cell proliferation, HeLa cells, 4 days incubation.

| SMILES | IC50 |
| --- | --- |
| Cc1ccc(-c2cc(N3CCOC[C@H]3C)nc3c(-c4ccn[nH]4)nccc23)s1 [Example 100, 2-[(3R)-3-methylmorpholin-4-yl]-4-(5-methyl-2-thienyl)-8-(1H-pyrazol-5-yl)-1,7-naphthyridine] | 950 nM |
| Cc1cscc1-c1cc(N2CCOC[C@H]2C)nc2c(-c3ccn[nH]3)nccc12 [Example 101, 2-[(3R)-3-methylmorpholin-4-yl]-4-(4-methyl-3-thienyl)-8-(1H-pyrazol-5-yl)-1,7-naphthyridine] | 341 nM |
| C[C@@H]1COCCN1c1cc(-c2sccc2Cl)c2ccnc(-c3ccn[nH]3)c2n1 [Example 102, 4-(3-chloro-2-thienyl)-2-[(3R)-3-methylmorpholin-4-yl]-8-(1H-pyrazol-5-yl)-1,7-naphthyridine] | 604 nM |
| Cc1sccc1-c1cc(N2CCOC[C@H]2C)nc2c(-c3ccn[nH]3)nccc12 [Example 103, 2-[(3R)-3-methylmorpholin-4-yl]-4-(2-methyl-3-thienyl)-8-(1H-pyrazol-5-yl)-1,7-naphthyridine] | 374 nM |
| C[C@@H]1COCCN1c1cc(-c2ccnc3[nH]ccc23)c2ccnc(-c3ccn[nH]3)c2n1 [Example 104, 2-[(3R)-3-methylmorpholin-4-yl]-8-(1H-pyrazol-5-yl)-4-(1H-pyrrolo[2,3-b]pyridin-4-yl)-1,7-naphthyridine] | 499 nM |
| Cc1noc(C)c1-c1cc(N2CCOC[C@H]2C)nc2c(-c3ccn[nH]3)nccc12 [Example 105, 4-(3,5-dimethyl-1,2-oxazol-4-yl)-2-[(3R)-3-methylmorpholin-4-yl]-8-(1H-pyrazol-5-yl)-1,7-naphthyridine] | 1000 nM |
| COc1nccc(-c2cc(N3CCOC[C@H]3C)nc3c(-c4ccn[nH]4)nccc23)c1Cl [Example 106, 4-(3-chloro-2-methoxypyridin-4-yl)-2-[(3R)-3-methylmorpholin-4-yl]-8-(1H-pyrazol-5-yl)-1,7-naphthyridine] | 434 nM |
| C[C@@H]1COCCN1c1cc(C2CCOCC2)c2ccnc(-c3ccn[nH]3)c2n1 [Example 107, 2-[(3R)-3-methylmorpholin-4-yl]-8-(1H-pyrazol-5-yl)-4-(tetrahydro-2H-pyran-4-yl)-1,7-naphthyridine] | 306 nM |
| C[C@@H]1COCCN1c1cc(C2=CCSCC2)c2ccnc(-c3ccn[nH]3)c2n1 [Example 108, 4-(3,6-dihydro-2H-thiopyran-4-yl)-2-[(3R)-3-methylmorpholin-4-yl]-8-(1H-pyrazol-5-yl)-1,7-naphthyridine] | 456 nM |
| CC1CCN(c2cc(N3CCOC[C@H]3C)nc3c(-c4ccn[nH]4)nccc23)CC1 [Example 109, 2-[(3R)-3-methylmorpholin-4-yl]-4-(4-methylpiperidin-1-yl)-8-(1H-pyrazol-5-yl)-1,7-naphthyridine] | 298 nM |
| C[C@@H]1COCCN1c1cc(-c2ccnn2C(C)(C)C)c2ccnc(-c3ccn[nH]3)c2n1 [Example 110, 4-(1-tert-butyl-1H-pyrazol-5-yl)-2-[(3R)-3-methylmorpholin-4-yl]-8-(1H-pyrazol-5-yl)-1,7-naphthyridine] | 206 nM |
| Cc1cc(-c2cc(N3CCOC[C@H]3C)nc3c(-c4ccn[nH]4)nccc23)on1 [Example 112, 2-[(3R)-3-methylmorpholin-4-yl]-4-(3-methyl-1,2-oxazol-5-yl)-8-(1H-pyrazol-5-yl)-1,7-naphthyridine] | 99.5 nM |
| CCn1nc(C)cc1-c1cc(N2CCOC[C@H]2C)nc2c(-c3ccn[nH]3)nccc12 [Example 113, 4-(1-ethyl-3-methyl-1H-pyrazol-5-yl)-2-[(3R)-3-methylmorpholin-4-yl]-8-(1H-pyrazol-5-yl)-1,7-naphthyridine] | 122 nM |
| Cc1cnn(C)c1-c1cc(N2CCOC[C@H]2C)nc2c(-c3ccn[nH]3)nccc12 [Example 114, 4-(1,4-dimethyl-1H-pyrazol-5-yl)-2-[(3R)-3-methylmorpholin-4-yl]-8-(1H-pyrazol-5-yl)-1,7-naphthyridine] | 177 nM |
| CSc1ccc(-c2cc(N3CCOC[C@H]3C)nc3c(-c4ccn[nH]4)nccc23)c(C)n1 [Example 115, 4-[2-methyl-6-(methylsulfanyl)pyridin-3-yl]-2-[(3R)-3-methylmorpholin-4-yl]-8-(1H-pyrazol-5-yl)-1,7-naphthyridine] | 199 nM |
| Cc1nc(S(C)(=N)=O)ccc1-c1cc(N2CCOC[C@H]2C)nc2c(-c3ccn[nH]3)nccc12 (stereo partly drawn) [Example 116, 4-[2-methyl-6-(S-methylsulfonimidoyl)pyridin-3-yl]-2-[(3R)-3-methylmorpholin-4-yl]-8-(1H-pyrazol-5-yl)-1,7-naphthyridine] | 284 nM |
| CCCn1nccc1-c1cc(N2CCOC[C@H]2C)nc2c(-c3ccn[nH]3)nccc12 [Example 117, 2-[(3R)-3-methylmorpholin-4-yl]-4-(1-propyl-1H-pyrazol-5-yl)-8-(1H-pyrazol-5-yl)-1,7-naphthyridine] | 225 nM |
| C[C@@H]1COCCN1c1cc(-c2cnc3n2CCC3)c2ccnc(-c3ccn[nH]3)c2n1 [Example 118, 4-(6,7-dihydro-5H-pyrrolo[1,2-a]imidazol-3-yl)-2-[(3R)-3-methylmorpholin-4-yl]-8-(1H-pyrazol-5-yl)-1,7-naphthyridine] | 171 nM |
| CCn1nc(C(F)(F)F)cc1-c1cc(N2CCOC[C@H]2C)nc2c(-c3ccn[nH]3)nccc12 [Example 119, 4-[1-ethyl-3-(trifluoromethyl)-1H-pyrazol-5-yl]-2-[(3R)-3-methylmorpholin-4-yl]-8-(1H-pyrazol-5-yl)-1,7-naphthyridine] | 425 nM |
| COC(=O)c1ccc(-c2cc(N3CCOC[C@H]3C)nc3c(-c4ccn[nH]4)nccc23)[nH]1 [Example 120, methyl 5-{2-[(3R)-3-methylmorpholin-4-yl]-8-(1H-pyrazol-5-yl)-1,7-naphthyridin-4-yl}-1H-pyrrole-2-carboxylate] | 354 nM |
| C[C@@H]1COCCN1c1cc(-c2ccns2)c2ccnc(-c3ccn[nH]3)c2n1 [Example 121, 2-[(3R)-3-methylmorpholin-4-yl]-8-(1H-pyrazol-5-yl)-4-(1,2-thiazol-5-yl)-1,7-naphthyridine] | 352 nM |
| C[C@@H]1COCCN1c1cc(-c2ccccc2N(C)C)c2ccnc(-c3ccn[nH]3)c2n1 [Example 122, N,N-dimethyl-2-{2-[(3R)-3-methylmorpholin-4-yl]-8-(1H-pyrazol-5-yl)-1,7-naphthyridin-4-yl}aniline] | 706 nM |
| C[C@@H]1COCCN1c1cc(-c2ccc(F)cc2F)c2ccnc(-c3ccn[nH]3)c2n1 [Example 123, 4-(2,4-difluorophenyl)-2-[(3R)-3-methylmorpholin-4-yl]-8-(1H-pyrazol-5-yl)-1,7-naphthyridine] | 431 nM |
| CC(C)n1nccc1-c1cc(N2CCOC[C@H]2C)nc2c(-c3ccn[nH]3)nccc12 [Example 124, 4-(1-isopropyl-1H-pyrazol-5-yl)-2-[(3R)-3-methylmorpholin-4-yl]-8-(1H-pyrazol-5-yl)-1,7-naphthyridine] | 156 nM |
| CC(C)COP(C)(=O)c1cc(N2CCOC[C@H]2C)nc2c(-c3ccn[nH]3)nccc12 (stereo partly drawn) [Example 127, isobutyl methyl{2-[(3R)-3-methylmorpholin-4-yl]-8-(1H-pyrazol-5-yl)-1,7-naphthyridin-4-yl}phosphinate] | 578 nM |
| C[C@@H]1COCCN1c1cc(C(C)(C)O)c2ccnc(-c3ccn[nH]3)c2n1 [Example 128, 2-{2-[(3R)-3-methylmorpholin-4-yl]-8-(1H-pyrazol-5-yl)-1,7-naphthyridin-4-yl}propan-2-ol] | 770 nM |
